Each compound was assayed against T1, full length human recombinant glucocorticoid receptor (Homo sapiens, UniProt P04150) (assay: Glucocorticoid Receptor Binding Assay (fluorescence polarization competitor assay, Fluormone GS Far Red tracer)). Conditions: not given.
T1 construct: partially purified full length human recombinant glucocorticoid receptor; purchased Panvera/Invitrogen PV4302
T1 sequence (P04150 1-777): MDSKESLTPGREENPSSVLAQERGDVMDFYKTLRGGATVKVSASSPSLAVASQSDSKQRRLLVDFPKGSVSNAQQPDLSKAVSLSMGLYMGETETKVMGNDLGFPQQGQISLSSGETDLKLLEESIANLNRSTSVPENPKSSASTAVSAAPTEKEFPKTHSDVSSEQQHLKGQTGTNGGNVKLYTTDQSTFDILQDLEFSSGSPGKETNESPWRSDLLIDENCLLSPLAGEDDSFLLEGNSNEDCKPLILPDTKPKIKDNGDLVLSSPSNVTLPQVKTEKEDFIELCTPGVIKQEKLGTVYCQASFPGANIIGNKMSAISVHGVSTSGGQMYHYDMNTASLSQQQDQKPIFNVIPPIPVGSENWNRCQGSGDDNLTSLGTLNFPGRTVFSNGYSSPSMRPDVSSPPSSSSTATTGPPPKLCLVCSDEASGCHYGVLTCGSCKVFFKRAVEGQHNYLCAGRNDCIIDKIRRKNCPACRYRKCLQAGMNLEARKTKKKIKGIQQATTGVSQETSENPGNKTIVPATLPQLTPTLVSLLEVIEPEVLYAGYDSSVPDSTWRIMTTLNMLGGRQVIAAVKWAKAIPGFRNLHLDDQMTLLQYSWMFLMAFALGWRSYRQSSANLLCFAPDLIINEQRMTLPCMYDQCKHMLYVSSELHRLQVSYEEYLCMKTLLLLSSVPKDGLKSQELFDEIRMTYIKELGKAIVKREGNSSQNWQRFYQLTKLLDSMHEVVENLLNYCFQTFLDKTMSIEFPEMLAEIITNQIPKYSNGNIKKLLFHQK
Method: Glucocorticoid Receptor Binding Assay
The ability of the substances to bind to the glucocorticoid receptor was determined with the help of a commercial Glucocorticoid Receptor Competitor Assay far red kit provided by Panvera/Invitrogen (PV4302). This kit is used as provided by the supplier. It contains some partially purified full length human recombinant glucocorticoid receptor, a coactivator related GR stabilizing peptide, a tight-binding fluorescent GR ligand Fluormone™ GS Far Red as labeled tracer and a screening buffer. All reagents are prepared and the assay is run according to the recommendations of the kit manufacturer.
Briefly, the GR stabilizing peptide and the human recombinant glucocorticoid receptor are both diluted with the screening buffer (pH 7.4) and are gently mixed (no vortexing) just before the assay and kept on ice until use. The fluorescent-labeled ligand is also diluted with the screening buffer just before the assay and kept on ice until use. The substances to test are pre-diluted in pure DMSO then some water is added to get an intermediate 4.2% DMSO stock solution. Ten microliter of the intermediate stock solution is gently mixed with 5 μl of diluted fluorescent-labeled ligand and 5 μl of diluted human recombinant glucocorticoid receptor in a 384-well plate (low volume, ultraclear, glass plate from Greiner ref 788896). The plate is centrifuged, sealed and incubated for 3 hours at 22° C. in the dark. The polarized fluorescence is measured with a Zeiss-HTS reader or any equivalent equipment (610-660 nm).
All compounds were tested to determine IC50 in a serial dilution experiment. The concentration at which 50% inhibition of the fluorescent GR ligand Fluormone™ GS Far Red is obtained (the IC50) is determined after fitting with a sigmoidal dose-response model of a plot of the logarithm of the concentration versus percent inhibition measured for the different concentrations. Ki's were calculated from IC50 based on Cheng-Prusoff equation (Cheng, Y, Prusoff, W H (1973) Biochem Pharmacol 22, 3099-3108): Ki=IC50/[1+D/Kd] wherein D is the concentration of the fluorescent ligand and Kd is the binding constant for the fluorescent ligand binding to the receptor under the conditions used in the competition experiment.

First: COC(=O)c1ccc(Oc2ccc([C@H](C)[C@](O)(c3cc(C)c(=O)n(C)c3)C(F)(F)F)c(Cl)c2)nc1 (relative stereo) [Example 217, 6-{3-Chloro-4-[2-(1,5-dimethyl-6-oxo-1,6-dihydro-pyridin-3-yl)-3,3,3-trifluoro-2-hydroxy-1-methyl-propyl]-phenoxy}-nicotinic acid methyl ester]
Second: COC(=O)c1cnc(Oc2ccc([C@H](C)[C@](O)(c3cc(C)c(=O)n(C)c3)C(F)(F)F)c(Cl)c2)nc1 (relative stereo) [Example 253, 2-{3-Chloro-4-[2-(1,5-dimethyl-6-oxo-1,6-dihydro-pyridin-3-yl)-3,3,3-trifluoro-2-hydroxy-1-methyl-propyl]-phenoxy}-pyrimidine-5-carboxylic acid methyl ester]
The Ki of the first is 1.9-fold higher: 2.9 nM for the first, 1.5 nM for the second. The second binds more tightly here.

Going from `C[C@H](c1ccc(-c2ccc(F)c(C(=O)O)c2)cc1Cl)[C@@](O)(c1cnc2ccccc2c1)C(F)(F)F` (relative stereo) [Example 226, 3′-Chloro-4-fluoro-4′-(3,3,3-trifluoro-2-hydroxy-1-methyl-2-quinolin-3-yl-propyl)-biphenyl-3-carboxylic acid] to `Cc1cc([C@](O)([C@H](C)c2ccc(-c3ccc(C(=O)O)c(F)c3)cc2Cl)C(F)(F)F)sc1C#N` (relative stereo) [Example 229, 3′-Chloro-4′-[2-(5-cyano-4-methyl-thiophen-2-yl)-3,3,3-trifluoro-2-hydroxy-1-methyl-propyl]-3-fluoro-biphenyl-4-carboxylic acid], the Ki falls from 24.4 nM to 11.2 nM (2.2-fold). The second binds more tightly here.

Going from `C[C@H](c1ccc(Oc2ncc(C(=O)O)cc2Cl)cc1Cl)[C@@](O)(c1ccc2nccnc2c1)C(F)(F)F` (relative stereo) [Example 227, 5-Chloro-6-[3-chloro-4-(3,3,3-trifluoro-2-hydroxy-1-methyl-2-quinoxalin-6-yl-propyl)-phenoxy]-nicotinic acid] to `Cc1cc([C@](O)([C@H](C)c2ccc(Oc3ncc(C(=O)O)cc3Cl)cc2Cl)C(F)(F)F)cnc1C#N` (relative stereo) [Example 231, 5-Chloro-6-{3-chloro-4-[2-(6-cyano-5-methyl-pyridin-3-yl)-3,3,3-trifluoro-2-hydroxy-1-methyl-propyl]-phenoxy}-nicotinic acid], the Ki falls from 14.3 nM to 1.7 nM (8.4-fold).

Compared with `COC(=O)c1cnc(Oc2ccc([C@@H](C)[C@@](O)(c3ccc(=O)n(C)c3)C(F)(F)F)c(Cl)c2Cl)cn1` (relative stereo) [Example 237, 5-{2,3-Dichloro-4-[3,3,3-trifluoro-2-hydroxy-1-methyl-2-(1-methyl-6-oxo-1,6-dihydro-pyridin-3-yl)-propyl]-phenoxy}-pyrazine-2-carboxylic acid methyl ester], `CCOC(=O)C(C)(C)Oc1ccc([C@H](C)[C@](O)(c2ccc(=O)n(C)c2)C(F)(F)F)c(Cl)c1Cl` (relative stereo) [Example 239, 2-{2,3-Dichloro-4-[3,3,3-trifluoro-2-hydroxy-1-methyl-2-(1-methyl-6-oxo-1,6-dihydro-pyridin-3-yl)-propyl]-phenoxy}-2-methyl-propionic acid ethyl ester] is 1.7-fold lower in Ki: 24.3 nM for the first, 14.5 nM for the second. The second binds more tightly here.

Compared with `Cc1cc(C(=O)O)cnc1Oc1ccc([C@H](C)[C@](O)(c2cc(C)c(=O)n(C)c2)C(F)(F)F)c(Cl)c1` (relative stereo) [Example 252, 6-{3-Chloro-4-[2-(1,5-dimethyl-6-oxo-1,6-dihydro-pyridin-3-yl)-3,3,3-trifluoro-2-hydroxy-1-methyl-propyl]-phenoxy}-5-methyl-nicotinic acid], `Cc1cc([C@@](O)([C@@H](C)c2ccc(Oc3ccc(C(=O)O)cc3C(F)(F)F)cc2Cl)C(F)(F)F)cn(C)c1=O` (single isomer, unassigned) [Example 219, 4-{3-Chloro-4-[2-(1,5-dimethyl-6-oxo-1,6-dihydro-pyridin-3-yl)-3,3,3-trifluoro-2-hydroxy-1-methyl-propyl]-phenoxy}-3-trifluoromethyl-benzoic acid] is 1.5-fold higher in Ki: 1.1 nM for the first, 1.7 nM for the second. The first binds more tightly here.

`CCOC(=O)c1ccc(COc2ccc([C@@H](C)[C@@](O)(c3cnc(C)cn3)C(F)(F)F)c(Cl)c2)cc1` (stereo in doubt) [Example 7, 4-{3-Chloro-4-[(1R,2R)-3,3,3-trifluoro-2-hydroxy-1-methyl-2-(5-methyl-pyrazin-2-yl)-propyl]-phenoxymethyl}-benzoic acid ethyl ester] and `Cc1cnc([C@](O)([C@H](C)c2ccc(OCc3ccc(CC(=O)O)cc3)cc2Cl)C(F)(F)F)cn1` (stereo in doubt) [Example 12, (4-{3-Chloro-4-[3,3,3-trifluoro-2-hydroxy-1-methyl-2-(5-methyl-pyrazin-2-yl)-propyl]-phenoxymethyl}-phenyl)-acetic acid] are within 1.5-fold of each other in Ki: 38.1 nM for the first, 33.5 nM for the second.

First: COC(=O)c1ccc(COc2ccc([C@@H](C)[C@@](O)(c3cnc(C)cn3)C(F)(F)F)c(Cl)c2)c(Cl)c1 (stereo in doubt) [Example 13, 3-Chloro-4-{3-chloro-4-[3,3,3-trifluoro-2-hydroxy-1-methyl-2-(5-methyl-pyrazin-2-yl)-propyl]-phenoxymethyl}-benzoic acid methyl ester]
Second: Cc1cnc([C@](O)([C@H](C)c2ccc(OCc3ccc(C(=O)O)cc3Cl)cc2Cl)C(F)(F)F)cn1 (stereo in doubt) [Example 14, 3-Chloro-4-{3-chloro-4-[3,3,3-trifluoro-2-hydroxy-1-methyl-2-(5-methyl-pyrazin-2-yl)-propyl]-phenoxymethyl}-benzoic acid]
The Ki of the first is 4.2-fold higher: 11.8 nM for the first, 2.8 nM for the second. The second binds more tightly here.

Going from `COc1cc(C(=O)O)ccc1COc1ccc([C@@H](C)[C@@](O)(c2cnc(C)cn2)C(F)(F)F)c(Cl)c1` (stereo in doubt) [Example 16, 4-{3-Chloro-4-[3,3,3-trifluoro-2-hydroxy-1-methyl-2-(5-methyl-pyrazin-2-yl)-propyl]-phenoxymethyl}-3-methoxy-benzoic acid] to `Cc1cnc([C@](O)([C@H](C)c2ccc(OCc3ccc(C(C)C(=O)O)cc3)cc2Cl)C(F)(F)F)cn1` (stereo in doubt) [Example 18, 2-(4-{3-Chloro-4-[3,3,3-trifluoro-2-hydroxy-1-methyl-2-(5-methyl-pyrazin-2-yl)-propyl]-phenoxymethyl}-phenyl)-propionic acid], the Ki rises from 72.3 nM to 110 nM (1.5-fold).

`COC(=O)C(C)c1ccc(COc2ccc([C@@H](C)[C@@](O)(c3cnc(C)cn3)C(F)(F)F)c(Cl)c2)cc1` (stereo in doubt) [Example 17, 2-(4-{3-Chloro-4-[3,3,3-trifluoro-2-hydroxy-1-methyl-2-(5-methyl-pyrazin-2-yl)-propyl]-phenoxymethyl}-phenyl)-propionic acid methyl ester] and `CCOC(=O)c1ccc(COc2ccc([C@@H](C)[C@@](O)(c3ccnc(Cl)c3)C(F)(F)F)c(Cl)c2)cc1` (stereo in doubt) [Example 19, 4-{3-Chloro-4-[2-(2-chloro-pyridin-4-yl)-3,3,3-trifluoro-2-hydroxy-1-methyl-propyl]-phenoxymethyl}-benzoic acid ethyl ester] are within 1.5-fold of each other in Ki: 33.9 nM for the first, 45.9 nM for the second.

Compound `C[C@H](c1ccc(OCc2ccc(C(=O)O)cc2)cc1Cl)[C@@](O)(c1ccnc(Cl)c1)C(F)(F)F` (stereo in doubt) [Example 20, 4-{3-Chloro-4-[2-(2-chloro-pyridin-4-yl)-3,3,3-trifluoro-2-hydroxy-1-methyl-propyl]-phenoxymethyl}-benzoic acid] has a Ki of 2.9 nM.

Same assay, conditions: Ki calculated from IC50 by Cheng-Prusoff; 3 hours at 22° C., pH 7.4

`Cc1cc([C@@](O)([C@@H](C)c2ccc(Oc3ccc(C(=O)O)cc3C(F)(F)F)cc2Cl)C(F)(F)F)cn(C)c1=O` (single isomer, unassigned) [Example 241, 4-{3-Chloro-4-[2-(1,5-dimethyl-6-oxo-1,6-dihydro-pyridin-3-yl)-3,3,3-trifluoro-2-hydroxy-1-methyl-propyl]-phenoxy}-3-trifluoromethyl-benzoic acid] showed a Ki of 1.7 nM.

Reference: patent US8138189B2, “Substituted benzene compounds as modulators of the glucocorticoid receptor” (Hoffman-La Roche Inc., priority 2009, dated 2012)
